Reference: patent US20240269304A1, “BCL-XL INHIBITOR ANTIBODY-DRUG CONJUGATES AND METHODS OF USE THEREOF” (Novartis AG, priority 2020, published 2024)
Read-outs that look alike come from different tables or passages of the source.

Tests used:
Assay type in all cases: cell-based
DND-41 cells = assay: CellTiterGlo (CTG) cell viability, 72 h, DND-41 (Example 8)
Method in brief: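 DND-41 cells in RPMI with 10% heat-inactivated FBS exposed to payloads or ADCs for 3 days at 37° C/5% CO2, in triplicate. Viability measured as cellular ATP by CellTiterGlo luminescence; IC50 from four-parameter fit.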

ncih524 = assay: In vitro ADC activity with combination partners, CellTiter-Glo 5 days, ncih524 (Example 13); conditions: single agent
Experimental: (§1) Antibody drug conjugates (ADCs) targeting IgG, B7H3, CD56, DLK1, DLL3, EpCAM, and SEZ6 were tested against cancer cell lines obtained from ATCC (American Type Culture Collection) or from other commercial cell line vendors (cor1279, ncih1436, ncih146, ncih211, ncih524). The cells were cultured in media that is optimal for their growth at 5% CO2, 37° C. in a tissue culture incubator. Prior to seeding for the proliferation assay, the cells were split at least 2 days before the assay to ensure optimal growth density. On the day of seeding, cells were lifted off tissue culture flasks using 0.25% trypsin. Cell viability and cell density were determined using a cell counter (Vi-Cell XR Cell Viability Analyzer, Beckman Coulter). Cells with higher than 85% viability were seeded in white clear bottom 384-well plates (Greiner cat #781098) at a density of 1000 cells per well in 50 μL of standard growth media. Plates were incubated at 37° C. overnight in a tissue culture incubator.
(§2) The ADCs were prepared in standard phosphate buffered solution to desired concentrations. A series of 10 dilutions were made for each ADC. The prepared drug treatments were then added to the cells resulting in final concentrations of 300 nM to 0.015 nM. Combination partners (Venetoclax and Topotecan) were added at fixed concentrations. Acoustic transfer devices (Echo525, Echo550, Beckman Coulter) were used to add the ADCs or combination partners to the cells. Each treatment was tested in triplicate assay plates. Plates were incubated at 37° C. overnight or for 5 days in a tissue culture incubator. The ability of the ADCs to inhibit cell proliferation and survival was assessed using the Promega CellTiter-Glo® proliferation assay. Plates were incubated at room temperature for 20 minutes to stabilize luminescent signals prior to reading using a multimode plate reader (Pherastar, BMG). Luminescent counts of untreated cells were taken the day after seeding (Day 0 readings), and after 5 days of treatment (Day 5 readings). The Day 5 readings of the untreated cells were compared to the Day 0 readings. Assays with at least one cell doubling during the incubation period were considered valid. To evaluate the effect of the drug treatments, luminescent counts from wells containing untreated cells (100% viability) were used to normalize treated samples. The concentrations of treatment required to inhibit 50% of cell growth or survival ([…]) were calculated using a four parameter logistic regression equation.

SUDHL8 (DLBCL) = assay: CellTiter-Glo viability 72 h, single agent or 1/1 combination, SUDHL8 (Example 9); conditions: Homo sapiens, SU-DHL-8, single agent or 1/1 combination as labelled
Experimental: (§3) Cell lines were cultured in the media described above at 37° C. in a humidified atmosphere containing 5% CO2. Cells were seeded in 96 well clear bottom plates (96 well clear-bottom, white, Corning reference 3903) and exposed to the payloads or ADCs at single agents or in 1/1 combinations with vincristine, ABT-199 or compound A2 for 72 h (serially diluted; 9 concentrations each, triplicates). Effects of payloads or ADCs on cell viability were assessed after 3 days of incubation at 37° C./5% CO2 by quantification of cellular ATP levels using CellTiter-Glo reagent (Promega Ref: G7571) at 75 μL reagent/well. All the conditions were tested in triplicates. Luminescence was quantified on a multipurpose plate reader. IC50s were calculated using standard four-parametric curve fitting. […] Each experiment was performed at least twice, with results being reproducible.

MM1S (MM) = assay: CellTiter-Glo viability 72 h, single agent or 1/1 combination, MM1S (Example 9); conditions: Homo sapiens, MM1.S, single agent or 1/1 combination as labelled
Experimental: as §3

ncih211 = assay: In vitro ADC activity with combination partners, CellTiter-Glo 5 days, ncih211 (Example 13); conditions: single agent
Experimental: as §1, §2

ALL-SILL (T-ALL) = assay: CellTiter-Glo viability 72 h, single agent or 1/1 combination, ALL-SIL (Example 9); conditions: single agent or 1/1 combination as labelled
Method in brief: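 ALL-SIL cells were incubated with payloads or ADCs, alone or in 1/1 combination, for 3 days at 37° C/5% CO2. Viability was read as cellular ATP by CellTiter-Glo luminescence, in triplicate. IC50s came from four-parameter curve fitting.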

HPB-ALL (T-ALL) = assay: CellTiter-Glo viability 72 h, single agent or 1/1 combination with vincristine, ABT-199 or Compound A2, HPB-ALL (Example 9); conditions: Homo sapiens, HPBALL, single agent or 1/1 combination as labelled
Experimental: as §3

Structure (SMILES): Cc1c(Nc2nc3ccccc3s2)nnc2c1CCCN2c1ccc(-c2cnn(C[C@]34C[C@]5(C)C[C@](C)(C3)C[C@@](OCCN3CCCC3)(C5)C4)c2C)c(C(=O)O)n1 [P21, 6-[3-(1,3-benzothiazol-2-ylamino)-4-methyl-6,7-dihydro-5H-pyrido[2,3-c]pyridazin-8-yl]-3-[1-[[3,5-dimethyl-7-(2-pyrrolidin-1-ylethoxy)-1-adamantyl]methyl]-5-methyl-pyrazol-4-yl]pyridine-2-carboxylic acid]
- IC50 (DND-41 cells; DND41, experiment n1, read-out: DND41 CTG 72 h IC50 nM n1): 0.31 nM
- IC50 (DND-41 cells; DND41, experiment n2, read-out: DND41 CTG 72 h IC50 nM n2): 0.2 nM
- IC50 (DND-41 cells; DND41, mean of n1 and n2, read-out: DND41 CTG 72 h IC50 nM Mean of n1 and n2): 0.26 nM
- GI50 (ncih524; Homo sapiens, NCI-H524, 120 h): 0.000508 µM
- GI Amax ncih524 (ncih524): −97.52
- IC50 (SUDHL8 (DLBCL); mean, read-out: SUDHL8 (DLBCL) IC50 mean): 0.24 nM
- IC50 (SUDHL8 (DLBCL); n1, read-out: SUDHL8 (DLBCL) IC50 n1): 0.34 nM
- IC50 (SUDHL8 (DLBCL); n2, read-out: SUDHL8 (DLBCL) IC50 n2): 0.14 nM
- IC50 (MM1S (MM); mean, read-out: MM1S (MM) IC50 mean): 17.4 nM
- IC50 (MM1S (MM); n1, read-out: MM1S (MM) IC50 n1): 10.4 nM
- IC50 (MM1S (MM); n2, read-out: MM1S (MM) IC50 n2): 24.3 nM
- GI50 (ncih211; Homo sapiens, NCI-H211, 120 h): 0.000508 µM
- GI Amax ncih211 (ncih211): −97.26
- IC50 (ALL-SILL (T-ALL); mean, read-out: ALL-SILL (T-ALL) IC50 mean): 0.63 nM
- IC50 (ALL-SILL (T-ALL); n1, read-out: ALL-SILL (T-ALL) IC50 n1): 0.4 nM
- IC50 (ALL-SILL (T-ALL); n2, read-out: ALL-SILL (T-ALL) IC50 n2): 0.86 nM
- IC50 (HPB-ALL (T-ALL); mean, read-out: HPB-ALL (T-ALL) IC50 mean): 1.01 nM
- IC50 (HPB-ALL (T-ALL); n1, read-out: HPB-ALL (T-ALL) IC50 n1): 1.33 nM
- IC50 (HPB-ALL (T-ALL); n2, read-out: HPB-ALL (T-ALL) IC50 n2): 0.69 nM
